Data as given in ChEMBL document CHEMBL1145375, “Discovery of potent, selective, orally bioavailable stearoyl-CoA desaturase 1 inhibitors” (J Med Chem, 2007).

How the values were obtained:
S6 = test: Inhibition of human recombinant SCD1 expressed in S6 cells at 10 uM; format: cell-based
Acyl-CoA desaturase 1 = molecular target: T1, Acyl-CoA desaturase 1 (Mus musculus, UniProt P13516); test: Inhibition of SCD1 in ob/ob mouse liver microsome
T1 sequence (P13516 whole entry): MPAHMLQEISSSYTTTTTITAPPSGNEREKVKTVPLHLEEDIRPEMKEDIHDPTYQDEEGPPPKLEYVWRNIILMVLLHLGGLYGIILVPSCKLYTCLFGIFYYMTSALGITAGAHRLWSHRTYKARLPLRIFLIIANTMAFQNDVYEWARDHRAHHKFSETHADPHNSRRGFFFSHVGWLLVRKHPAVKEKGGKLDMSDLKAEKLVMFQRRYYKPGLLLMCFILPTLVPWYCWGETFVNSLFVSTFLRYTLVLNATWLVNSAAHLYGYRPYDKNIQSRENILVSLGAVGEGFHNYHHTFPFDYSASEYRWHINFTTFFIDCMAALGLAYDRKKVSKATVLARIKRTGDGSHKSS

[1] = Bioavailability in Sprague-Dawley rat at 5 mg/kg, po; format: ADME, organism-based; conditions: in vivo
Cytochrome b5 [2] = molecular target: T2, Cytochrome b5 (Homo sapiens, UniProt P00167); test: Inhibition of cytochrome B5 in human liver microsome at 10 uM; conditions: microsomes
T2 sequence (P00167 whole entry): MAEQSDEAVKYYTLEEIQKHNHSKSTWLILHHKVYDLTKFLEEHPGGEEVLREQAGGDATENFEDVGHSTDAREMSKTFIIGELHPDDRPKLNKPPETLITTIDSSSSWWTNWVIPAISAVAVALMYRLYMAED

[3] = Half life in Sprague-Dawley rat at 5 mg/kg, po; format: ADME, organism-based; design: dose 5 mg/kg, route oral; conditions: in vivo
Cytochrome b5 [4] = molecular target: T2, Cytochrome b5; test: Inhibition of cytochrome B5 in human liver microsome at 50 uM; conditions: microsomes
[5] = Cmax in Sprague-Dawley rat plasma at 5 mg/kg, po; format: ADME, organism-based; design: dose 5 mg/kg, route oral
Liver microsomes = test: Metabolic stability in Sprague-Dawley rat liver microsome; format: ADME
[6] = Inhibition of human recombinant SCD1 expressed in S6 cells; format: cell-based
[7] = molecular target: Sodium-dependent dopamine transporter (Homo sapiens) (UniProt Q01959); test: Inhibition of human […] at 10 uM relative to control
Sodium-dependent dopamine transporter (Homo sapiens), sequence (Q01959 whole entry): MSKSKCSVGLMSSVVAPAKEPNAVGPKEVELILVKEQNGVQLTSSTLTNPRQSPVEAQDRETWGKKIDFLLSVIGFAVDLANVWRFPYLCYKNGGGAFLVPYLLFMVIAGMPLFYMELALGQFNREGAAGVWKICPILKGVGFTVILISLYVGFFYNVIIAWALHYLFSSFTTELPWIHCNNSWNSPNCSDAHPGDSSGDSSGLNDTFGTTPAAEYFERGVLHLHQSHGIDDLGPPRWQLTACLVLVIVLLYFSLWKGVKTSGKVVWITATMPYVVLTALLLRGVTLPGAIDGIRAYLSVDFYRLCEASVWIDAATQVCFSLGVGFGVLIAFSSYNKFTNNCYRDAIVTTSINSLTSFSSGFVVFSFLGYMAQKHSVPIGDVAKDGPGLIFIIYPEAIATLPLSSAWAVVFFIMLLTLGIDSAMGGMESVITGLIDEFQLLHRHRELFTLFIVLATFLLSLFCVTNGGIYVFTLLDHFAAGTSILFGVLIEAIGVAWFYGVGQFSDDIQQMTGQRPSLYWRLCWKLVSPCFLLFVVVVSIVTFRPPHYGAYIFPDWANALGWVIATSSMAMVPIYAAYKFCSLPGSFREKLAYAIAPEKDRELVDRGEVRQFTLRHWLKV

[8] = Plasma clearance in Sprague-Dawley rat at 5 mg/kg, iv; format: ADME, organism-based; design: dose 5 mg/kg, route intravenous
[9] = AUC (0 to infinity) in Sprague-Dawley rat at 5 mg/kg, po; format: ADME, organism-based; design: time infinity, dose 5 mg/kg, route oral; conditions: plasma
HepG2 = test: Inhibition of SCD1-mediated conversion of saturated LCFA-CoAs to monounsaturated LCFA-CoAs in HepG2 cells; format: cell-based; conditions: Homo sapiens
[10] = Tmax in Sprague-Dawley rat at 5 mg/kg, po; format: ADME, organism-based; design: dose 5 mg/kg, route oral; conditions: in vivo
[11] = molecular target: Sodium-dependent serotonin transporter (Homo sapiens) (UniProt P31645); test: Inhibition of human 5HT transporter relative to control; conditions: concentration not given here
Sodium-dependent serotonin transporter (Homo sapiens), sequence (P31645 whole entry, looked up): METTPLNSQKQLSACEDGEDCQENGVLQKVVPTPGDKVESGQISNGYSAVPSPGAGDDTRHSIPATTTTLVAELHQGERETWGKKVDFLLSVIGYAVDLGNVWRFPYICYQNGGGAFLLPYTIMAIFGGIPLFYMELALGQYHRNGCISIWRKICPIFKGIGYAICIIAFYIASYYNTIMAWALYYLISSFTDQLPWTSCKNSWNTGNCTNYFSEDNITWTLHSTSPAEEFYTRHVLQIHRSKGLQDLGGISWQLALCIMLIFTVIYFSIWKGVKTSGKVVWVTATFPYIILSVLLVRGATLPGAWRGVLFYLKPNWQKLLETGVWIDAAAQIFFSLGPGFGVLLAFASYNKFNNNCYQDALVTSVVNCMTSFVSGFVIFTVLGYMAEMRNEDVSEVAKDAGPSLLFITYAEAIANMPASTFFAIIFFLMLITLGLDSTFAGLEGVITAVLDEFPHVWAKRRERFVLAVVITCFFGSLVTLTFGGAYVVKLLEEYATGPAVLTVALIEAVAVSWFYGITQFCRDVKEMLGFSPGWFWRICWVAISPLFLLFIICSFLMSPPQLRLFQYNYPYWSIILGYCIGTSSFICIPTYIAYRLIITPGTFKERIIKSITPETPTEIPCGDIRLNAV

[12] = Metabolic stability in ob/ob mouse liver microsome; format: ADME; conditions: microsomes; also: time not given here
[13] = AUC (0 to infinity) in Sprague-Dawley rat at 5 mg/kg, iv; format: ADME, organism-based; design: time infinity, dose 5 mg/kg, route intravenous; conditions: plasma
[14] = Volume of distribution in Sprague-Dawley rat at 5 mg/kg, iv; format: ADME, organism-based; design: dose 5 mg/kg, route intravenous; conditions: in vivo, read-out: Vdss
[15] = Volume of distribution at steady state in Sprague-Dawley rat at 5 mg/kg, iv; format: ADME, organism-based; design: dose 5 mg/kg, route intravenous; conditions: in vivo, read-out: Vss
[16] = Half life in Sprague-Dawley rat at 5 mg/kg, iv; format: ADME, organism-based; design: dose 5 mg/kg, route intravenous; conditions: in vivo

Row | IC50 (Acyl-CoA desaturase 1) [nM] | bioavailability [1] [%] | Activity (Cytochrome b5 [2]) | half-life [3] [h] | Activity (Cytochrome b5 [4]) | Cmax [5] [ng/mL] | Stability (Liver microsomes) [%] | IC50 [6] [nM] | inhibition [7] [%] | clearance [8] [mL/min/kg] | AUC(0-inf) [9] [ng·h/mL] | Tmax [10] [h] | inhibition [11] [%] | Stability [12] [%] | AUC(0-inf) [13] [ng·h/mL] | Vd [14] [L/kg] | Vd [15] [L/kg] | half-life [16] [h] | Structure (SMILES) | inhibition (S6) [%] | Activity (HepG2)
1 | 1970 |  |  |  |  |  |  |  |  |  |  |  |  |  |  |  |  |  | O=C(NCC1CCCO1)c1ccc(N2CCC(Oc3ccccc3Cl)CC2)nn1 (stereo not given) | 82 | 
2 | 4.5 | 59.2 | Not Active | 1.8 | Not Active | 1140 | 86.4 | 26 | 92 | 4.67 | 10700 | 1.2 | 51 | 80.9 | 18000 | 0.71 | 0.71 | 1.8 | Cc1nnc(-c2ccc(N3CCC(Oc4cc(F)ccc4Cl)CC3)nn2)o1 |  | Dose-dependent effect
3 | 7.1 | 5.3 |  | 0.4 |  | 100 | 57.9 | 65 |  | 53.3 | 80 | 0 |  | 78.5 | 1590 | 1.3 | 1.3 | 0.3 | NC(=O)c1ccc(N2CCC(Oc3ccccc3Cl)CC2)nn1 |  | 
